Experimental data reported in US20250025553A1, “COMBINATION THERAPY FOR CANCER” (Medannex Ltd., priority 2021, published 2025).
“Also recorded” adds a separate entry of the source. Read-outs that look alike come from different tables or passages of the source.

Legend:
[1] = test system: PANC-1 pancreatic cancer cell line; assay: MTT cell proliferation assay, PANC-1; format: cell-based, human; conditions: for IC50: Homo sapiens, PANC-1, MTT
Procedure: (§1) The cell lines were obtained from Public Health England Culture Collections. MIA-PaCa-2 is a human pancreatic carcinoma cell line; PANC-1 is a human pancreatic epithelioid carcinoma cell line.
(§2) Assays were performed in triplicate.
(§3) Cells were then cultured for 24 hr prior to assay, then cell proliferation was measured.
(§4) With both cell lines 5FU was used at its IC50. The IC50 concentration represents the concentration at which a substance exerts half of its maximal inhibitory effect. The IC50 for each cell line was calculated by treating with a series of 10-fold dilutions of 5FU ranging from 1 nM to 10 mM. The MTT assay was used to calculate cancer cell viability after 72 hr incubation with 5FU at each concentration.

[2] = test system: MIA PaCa-2 pancreatic cancer cell line; assay: MTT cell proliferation assay, MIA PaCa-2; format: cell-based, human
Procedure: as §1, §2, §3, §4

p-STAT3 (Tyr705) = assay: Expression of apoptosis related protein p-STAT3 (flow cytometry); format: cell-based, human; conditions: MDX-124 20 μM, bortezomib 20 nM or both, 4 h; multiple myeloma cell lines
Procedure: (§5) The effects of MDX-124, bortezomib and the combination of both agents on the expression of 2 apoptosis related proteins, p-BCL2 and p-STAT3, was assessed using flow cytometry. Aliquots of each human multiple myeloma cell line were treated with either MDX-124 (20 μM), bortezomib (20 nM) or a combination of MDX-124 and bortezomib for 4 h prior to staining with an Alexa488-labelled p-STAT3 (Tyr705, from BD Biosciences, catalogue #557814) antibody and a PE-labelled p-BCL2 ([…], BD Biosciences, catalogue #562532) antibody. Mean fluorescence intensity values for each treatment group were compared with untreated control cells.

interleukin-6 (IL-6) = assay: Intracellular IL-6 expression (flow cytometry); format: cell-based, human; conditions: MDX-124 20 μM, bortezomib 20 nM or both, 24h; multiple myeloma cell lines
Procedure: The effects of each agent, both alone and in combination, on the expression of interleukin-6 (IL-6) were assessed using flow cytometry. […] Mean fluorescence intensity values for IL-6 for each respective treatment group were compared with untreated control cells.

p-BCL2 (pS70) = assay: Expression of apoptosis related protein p-BCL2 (flow cytometry); format: cell-based, human; conditions: MDX-124 20 μM, bortezomib 20 nM or both, 4 h; multiple myeloma cell lines
Procedure: as §5

[3] = test system: Human multiple myeloma cell lines (H929, JJN3 and U266); assay: Apoptosis assay (Annexin V and 7-AAD labelling, flow cytometry); format: cell-based; conditions: MDX-124 20 μM, bortezomib 20 nM or both (1000:1), 48 h
Procedure: The effect of MDX-124, bortezomib and the combination of both agents on apoptosis was assessed using Annexin V and 7-AAD labelling. Human multiple myeloma cell lines (H929, JJN3 and U266, all from DSMZ, Leibniz Institute, German Collection of Microorganisms and Cell Cultures, GmbH, Germany) were incubated with either MDX-124 (20 μM), bortezomib (20 nM, Cell Signaling Technology, MA, USA) or the combination of both agents (fixed molar ratio of 1000:1) in 1 mL of RPMI media supplemented with 10% FCS for 48 h. The percentage of apoptosis above untreated control cell levels was quantified using flow cytometry for each respective treatment group.

[4] = test system: triple-negative breast cancer cell line HCC1806; assay: MTT cell proliferation assay, HCC1806
LL/2 lung cancer cells = assay: LL/2 murine model of lung cancer; format: in vivo, C57BL/6 mice; conditions: LL/2, MDX-124 10 mg/kg weekly, anti-PD-1 10 mg/kg twice weekly; two-way repeated measures ANOVA/mixed-effects model
Procedure: Drugs were administered as described above. Tumour volume was measured at days 2, 5, 8, 12 and 15, at which point the vehicle and monotherapy groups were terminated. The combination therapy group was measured again at day 19 and then terminated.
Results were analysed using a two-way repeated measures ANOVA/mixed-effects model. […] No body weight loss was detected in this study.

[5] = test system: EMT6 triple-negative breast cancer cells; assay: EMT6 mouse model of breast cancer; format: in vivo, BALB/c mice
Procedure: Nine-week-old female BALB/c mice were inoculated subcutaneously with 5×10^5 EMT6 triple-negative breast cancer cells. […] Tumour volume was measured twice weekly for 3 weeks. The anti-PD-1 antibody used is the mouse antibody RMP-1-14 (Yamazaki et al., Journal of Immunology 175(3): 1586-1592, 2005); PBS was administered by intraperitoneal injection; antibodies were administered by intravenous injection.

## O=c1[nH]cc(F)c(=O)[nH]1 [5FU, 5-fluorouracil, reference compound]
[1]; 72 hr incubation, repeated 8 times, read-out: IC50 of 5FU (concentration at which 50% of cells were not viable)
  IC50: 1000 µM
[2]; Homo sapiens, MIA PaCa-2, MTT, 72 hr incubation, repeated 8 times, read-out: IC50 of 5FU (concentration at which 50% of cells were not viable)
  IC50: 100 µM

## CC(C)C[C@H](NC(=O)[C@H](Cc1ccccc1)NC(=O)c1cnccn1)B(O)O [bortezomib, reference compound]
p-STAT3 (Tyr705)
  expression of p-STAT3 (mean fluorescence intensity vs untreated control cells): reduced the expression
interleukin-6 (IL-6)
  intracellular IL-6 expression (mean fluorescence intensity vs untreated control cells): modestly reduced
p-BCL2 (pS70)
  expression of p-BCL2 (mean fluorescence intensity vs untreated control cells): reduced the expression
[3]
  apoptosis (percentage above untreated control cell levels): significantly induced apoptosis

## N.N.[Cl][Pt][Cl] [cisplatin, reference compound]
[4]; read-out: IC50 of cisplatin (concentration at which 50% of cells were not viable), HCC1806, MTT, repeated four times
  IC50: 0.65 µM

## Nc1ccn([C@@H]2O[C@H](CO)[C@@H](O)C2(F)F)c(=O)n1 [gemcitabine, reference compound]
[1]; repeated three times, read-out: IC50 of gemcitabine (concentration at which 50% of cells were not viable)
  IC50: 20 µM

## CC(=O)O[C@H]1C(=O)[C@@]2(C)[C@H]([C@H](OC(=O)c3ccccc3)[C@]3(O)C[C@H](OC(=O)[C@H](O)[C@@H](NC(=O)c4ccccc4)c4ccccc4)C(C)=C1C3(C)C)[C@]1(OC(C)=O)CO[C@@H]1C[C@@H]2O [paclitaxel, reference compound]
[4]; Homo sapiens, HCC1806, read-out: IC20 of paclitaxel (concentration at which 20% of cells were not viable)
  IC20: 0.0004 µM

## MDX-124: humanised IgG1 antibody against ANXA1 with a light chain of SEQ ID NO: 13 and a heavy chain of SEQ ID NO: 14
LL/2 lung cancer cells
  tumour growth compared to vehicle (and monotherapies): No significant differences
p-STAT3 (Tyr705)
  expression of p-STAT3 (mean fluorescence intensity vs untreated control cells): reduced the expression
[1]; PANC-1, MDX-124 alone 2.5-10 μM, 72 hours, vs IgG isotype control
  anti-proliferative effect, single agent: significantly reduces cancer cell proliferation; also recorded: relatively potent anti-proliferative effect
[4]; HCC1806, MDX-124 alone 2.5-10 μM, vs IgG isotype control
  anti-proliferative effect, single agent: significantly reduces cancer cell proliferation; also recorded: anti-proliferative effect
[2]; MIA PaCa-2, MDX-124 alone 2.5-10 μM, 72 hours, vs IgG isotype control
  anti-proliferative effect, single agent: significantly reduces cancer cell proliferation; also recorded: relatively potent anti-proliferative effect
interleukin-6 (IL-6)
  intracellular IL-6 expression (mean fluorescence intensity vs untreated control cells): modestly reduced
p-BCL2 (pS70)
  expression of p-BCL2 (mean fluorescence intensity vs untreated control cells): reduced the expression
[3]
  apoptosis (percentage above untreated control cell levels): had an impact on apoptosis

B1: MDX-001: murine anti-ANXA1 antibody, parent of MDX-124; light and heavy chains of SEQ ID NOs: 30 and 31 (antibody, listed as Mus musculus)
heavy: QVQLQQSGPELVRPGTSVKMSCKASGYTFTNYWIGWAKQRPGHGLEWIGDIYPGGDYTNYNEKFKGKATLTADKSSSTAYMQFSSLTSEDSAIYYCARWGLGYYFDYWGQGITLTVSSAKTTPPSVYPLAPGCGDTTGSSVTLGCLVKGYFPESVTVTWNSGSLSSSVHTFPALLQSGLYTMSSSVTVPSSTWPSQTVTCSVAHPASSTTVDKKLEPSGPISTINPCPPCKECHKCPAPNLEGGPSVFIFPPNIKDVLMISLTPKVTCVVVDVSEDDPDVQISWFVNNVEVHTAQTQTHREDYNSTIRVVSTLPIQHQDWMSGKEFKCKVNNKDLPSPIERTISKIKGLVRAPQVYILPPPAEQLSRKDVSLTCLVVGFNPGDISVEWTSNGHTEENYKDTAPVLDSDGSYFIYSKLNMKTSKWEKTDSFSCNVRHEGLKNYYLKKTISRSPGK
light: DAVMTQTPLSLPVSLGDQVSISCRSSQSLENSNGKTYLNWYLQKPGQSPQLLIYGVSNRFSGVLDRFSGSGSGTDFTLKISRVEAEDLGVYFCLQVTHVPYTFGGGTKLEIKRADAAPTVSIFPPSSEQLTSGGASVVCFLNNFYPKDINVKWKIDGSERQNGVLNSWTDQDSKDSTYSMSSTLTLTKDEYERHNSYTCEATHKTSTSPIVKSFNRNEC
LL/2 lung cancer cells
  tumour growth compared to vehicle (and monotherapies): neither MDX-001 nor the anti-PD-1 antibodies displayed efficacy
[5]; EMT6, MDX-001 10 mg/kg weekly, anti-PD-1 10 mg/kg twice weekly, i.v., 3 weeks
  tumour growth compared to the vehicle control: did not significantly affect tumour growth
[5]; EMT6 model
  adverse effects: no adverse effects
